Assay results: patent US9796733B2, “Imidazo-pyrazine derivatives useful as soluble guanylate cyclase activators” (Merck Sharp & Dohme Corp., priority 2014, dated 2017)
pEC50: −log10 of the molar value.

Target: T1, sGC α1/β1 heterodimer (Homo sapiens, UniProt Q02108+Q02153)
T1 construct: expressed in transfected cells; host or cells: CHO-K1 (clone #7, CHO-K1/sGC)
T1 sequence (Q02108 1-690): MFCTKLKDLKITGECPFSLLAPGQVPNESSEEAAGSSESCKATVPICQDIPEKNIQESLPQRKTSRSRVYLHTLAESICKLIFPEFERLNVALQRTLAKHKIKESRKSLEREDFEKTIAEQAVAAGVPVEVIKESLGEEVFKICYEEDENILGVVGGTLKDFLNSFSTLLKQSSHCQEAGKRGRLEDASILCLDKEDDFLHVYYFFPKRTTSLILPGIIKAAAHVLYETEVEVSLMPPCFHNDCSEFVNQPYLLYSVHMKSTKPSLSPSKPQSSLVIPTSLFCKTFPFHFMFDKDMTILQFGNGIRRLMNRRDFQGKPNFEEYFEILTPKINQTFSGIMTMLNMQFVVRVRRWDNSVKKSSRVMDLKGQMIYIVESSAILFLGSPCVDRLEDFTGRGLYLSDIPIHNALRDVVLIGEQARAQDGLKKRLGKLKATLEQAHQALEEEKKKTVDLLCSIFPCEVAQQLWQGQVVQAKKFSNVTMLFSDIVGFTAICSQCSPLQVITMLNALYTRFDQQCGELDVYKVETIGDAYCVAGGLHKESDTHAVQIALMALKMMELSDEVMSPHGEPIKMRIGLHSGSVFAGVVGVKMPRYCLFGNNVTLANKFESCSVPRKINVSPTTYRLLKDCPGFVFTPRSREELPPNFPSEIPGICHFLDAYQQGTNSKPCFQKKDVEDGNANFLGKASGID
T1 sequence (Q02153 1-619): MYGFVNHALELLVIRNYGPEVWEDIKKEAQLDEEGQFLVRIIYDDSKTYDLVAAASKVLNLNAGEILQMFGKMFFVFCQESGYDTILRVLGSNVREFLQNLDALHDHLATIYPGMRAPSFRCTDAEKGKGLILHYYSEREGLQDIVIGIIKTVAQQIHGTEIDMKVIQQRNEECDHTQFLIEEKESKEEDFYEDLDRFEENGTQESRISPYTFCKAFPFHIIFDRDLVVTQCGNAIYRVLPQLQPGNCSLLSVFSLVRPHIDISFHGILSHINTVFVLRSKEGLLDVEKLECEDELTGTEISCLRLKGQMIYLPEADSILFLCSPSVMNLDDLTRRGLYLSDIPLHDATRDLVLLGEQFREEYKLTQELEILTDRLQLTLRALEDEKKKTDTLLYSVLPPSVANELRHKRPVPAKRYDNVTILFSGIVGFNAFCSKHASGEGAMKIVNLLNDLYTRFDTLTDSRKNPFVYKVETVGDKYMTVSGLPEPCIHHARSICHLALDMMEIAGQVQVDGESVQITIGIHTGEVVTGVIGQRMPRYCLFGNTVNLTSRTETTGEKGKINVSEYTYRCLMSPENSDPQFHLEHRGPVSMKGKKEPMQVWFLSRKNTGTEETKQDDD
Assay: Cell-based sGC functional assay (CASA assay): cGMP generation in CHO-K1/sGC cells, HTRF detection
Conditions: for Emax: CHO-K1, percent activation relative to standard Compound A in CHO-K1/sGC cells, read-out: % Act.; for pEC50: inflection point (IP) of cGMP generation in CHO-K1/sGC cells, 4P fit, activity expressed as percentage of Compound A
Summary of the method: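 cGMP was quantified by HTRF after 1 hr, 37° C exposure of thawed CHO-K1 cells expressing sGC α1/β1 to compound, with or without 1 μM DETA-NO. IBMX (0.5 mM) blocked cGMP breakdown, and DMSO was 2.5% final. Percent of standard Compound A's maximal cGMP was fitted (4P) for inflection point.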

Emax [%]	pEC50	SMILES
105	6.26	CC1(C)CN(c2nc(-c3cn4ccnc4c(CCC(F)(F)C(F)(F)F)n3)nc3c2C(C)(c2ccc(F)cc2)C(=O)N3)C1 (stereo not shown) [Example 302A, 4-(3,3-dimethylazetidin-1-yl)-5-(4-fluorophenyl)-5-methyl-2-(8-(3,3,4,4,4-pentafluorobutyl)imidazo[1,2-a]pyrazin-6-yl)-5H-pyrrolo[2,3-d]pyrimidin-6(7H)-one]
142	7.28	CC1(c2ccc(F)cc2)C(=O)Nc2nc(-c3cn4ccnc4c(CCC4CCCCC4)n3)nc(N)c21 (stereo not shown) [Example 12A, 4-amino-2-(8-(2-cyclohexylethyl)imidazo[1,2-a]pyrazin-6-yl)-5-(4-fluorophenyl)-5-methyl-5H-pyrrolo[2,3-d]pyrimidin-6(7H)-one]
115	6.25	CC1(c2ccc(F)cc2)C(=O)Nc2nc(-c3cn4ccnc4c(-c4ccc(C5CC5)cc4)n3)nc(N)c21 (stereo not shown) [Example 6A, 4-amino-2-(8-(4-cyclopropylphenyl)imidazo[1,2-a]pyrazin-6-yl)-5-(4-fluorophenyl)-5-methyl-5H-pyrrolo[2,3-d]pyrimidin-6(7H)-one]
63	6.23	COc1ccc(-c2nc(-c3nc(N)c4c(n3)NC(=O)C4(C)c3ccc(F)cc3)cn3ccnc23)cc1 (stereo not shown) [Example 7A, 4-amino-5-(4-fluorophenyl)-2-(8-(4-methoxyphenyl)imidazo[1,2-a]pyrazin-6-yl)-5-methyl-5H-pyrrolo[2,3-d]pyrimidin-6(7H)-one]
99	6.58	Nc1nc(-c2cn3ccnc3c(CCCC(F)(F)F)n2)nc2c1C(c1ncc(C(F)(F)F)cc1Cl)(C1CC1)C(=O)N2 (single isomer, unassigned) [Example 370B, 4-amino-5-(3-chloro-5-(trifluoromethyl)pyridin-2-yl)-5-cyclopropyl-2-(8-(4,4,4-trifluorobutyl)imidazo[1,2-a]pyrazin-6-yl)-5H-pyrrolo[2,3-d]pyrimidin-6(7H)-one]
107	6.89	Cc1nc2c(CCC(F)(F)C(F)(F)F)nc(-c3nc(N)c4c(n3)NC(=O)C4(C)c3ccc(F)cc3)cn2c1C (stereo not shown) [Example 177A, 4-amino-2-(2,3-dimethyl-8-(3,3,4,4,4-pentafluorobutyl)imidazo [1,2-a]pyrazin-6-yl)-5-(4-fluorophenyl)-5-methyl-5H-pyrrolo[2,3-d]pyrimidin-6(7H)-one]
91	6.84	Nc1nc(-c2cn3ccnc3c(CCC(F)(F)C(F)(F)F)n2)nc2c1C(c1nnc(C3CC3)s1)(C1CC1)C(=O)N2 (stereo not shown) [Example 54A, 4-amino-5-cyclopropyl-5-(5-cyclopropyl-1,3,4-thiadiazol-2-yl)-2-(8-(3,3,4,4,4-pentafluorobutyl)imidazo[1,2-a]pyrazin-6-yl)-5H-pyrrolo[2,3-d]pyrimidin-6(7H)-one]
160	6.62	CC(C)Cc1nc(-c2nc(N)c3c(n2)NC(=O)C3(c2ccc(Cl)cn2)C2CC2)cn2ccnc12 (stereo not shown) [Example 126B, 4-amino-5-(5-chloropyridin-2-yl)-5-cyclopropyl-2-(8-isobutylimidazo[1,2-a]pyrazin-6-yl)-5H-pyrrolo[2,3-d]pyrimidin-6(7H)-one]
109	6.07	CC1(c2ccc(F)cc2)C(=O)Nc2nc(-c3cn4ccnc4c(CCCc4ccccc4)n3)nc(N)c21 (stereo not shown) [Example 5A]
77	7.35	CC1(c2ccc(F)cc2)C(=O)Nc2nc(-c3cn4ccnc4c(CCC(F)(F)C(F)(F)F)n3)nc(N3CCOCC3)c21 (stereo not shown) [Example 310A, 5-(4-fluorophenyl)-5-methyl-4-morpholino-2-(8-(3,3,4,4,4-pentafluorobutyl)imidazo[1,2-a]pyrazin-6-yl)-5H-pyrrolo[2,3-d]pyrimidin-6(7H)-one]
95	6.21	CN(C)C(=O)c1cccc(C2(C)C(=O)Nc3nc(-c4cn5ccnc5c(CCC(F)(F)C(F)(F)F)n4)nc(N)c32)c1 (stereo not shown) [Example 271B, 3-(4-Amino-5-methyl-6-oxo-2-(8-(3,3,4,4,4-pentafluorobutyl)imidazo[1,2-a]pyrazin-6-yl)-6,7-dihydro-5H-pyrrolo[2,3-d]pyrimidin-5-yl)-N,N-dimethylbenzamide]
104	6.39	CCCc1nc(-c2nc(N)c3c(n2)NC(=O)C3(C)c2ccc(OC(F)(F)F)cc2)cn2ccnc12 (stereo not shown) [Example 24A, 4-amino-5-methyl-2-(8-propylimidazo[1,2-a]pyrazin-6-yl)-5-(4-(trifluoromethoxy)phenyl)-5H-pyrrolo[2,3-d]pyrimidin-6(7H)-one]
99	7.39	CCCCc1nc(-c2nc(N)c3c(n2)NC(=O)C3(C)c2ccc(C(F)(F)F)cn2)cn2c(C)cnc12 (stereo not shown) [Example 167B, 4-amino-2-(8-butyl-3-methylimidazo[1,2-a]pyrazin-6-yl)-5-methyl-5-(5-(trifluoromethyl)pyridin-2-yl)-5H-pyrrolo[2,3-d]pyrimidin-6(7H)-one]
93	6.20	Cc1nnc(C2(C)C(=O)Nc3nc(-c4cn5ccnc5c(CCC(F)(F)C(F)(F)F)n4)nc(N)c32)s1 (stereo not shown) [Example 58A, 4-amino-5-methyl-5-(5-methyl-1,3,4-thiadiazol-2-yl)-2-(8-(3,3,4,4,4-pentafluorobutyl)imidazo[1,2-a]pyrazin-6-yl)-5H-pyrrolo[2,3-d]pyrimidin-6(7H)-one]
88	7.09	COc1ccc(C2(C)C(=O)Nc3nc(-c4cn5ccnc5c(CCC(F)(F)C(F)(F)F)n4)nc(N)c32)nc1 (stereo not shown) [Example 248B, 4-amino-5-(5-methoxypyridin-2-yl)-5-methyl-2-(8-(3,3,4,4,4-pentafluorobutyl)imidazo [12-a]pyrazin-6-yl)-5H-pyrrolo[2,3-d]pyrimidin-6(7H)-one]
120	7.92	CC1(c2ccc(F)cc2)C(=O)Nc2nc(-c3cn4cc(C(F)(F)F)nc4c(Cc4ccccc4F)n3)nc(N)c21 (stereo not shown) [Example 147A, 4-amino-2-(8-(2-fluorobenzyl)-2-(trifluoromethyl)imidazo[1,2-a]pyrazin-6-yl)-5-(4-fluorophenyl)-5-methyl-5H-pyrrolo[2,3-d]pyrimidin-6(7H)-one]
101	6.37	C[C@@H]1CN(c2nc(-c3cn4ccnc4c(CCC(F)(F)C(F)(F)F)n3)nc3c2C(C)(c2ccc(F)cc2)C(=O)N3)C[C@H](C)O1 (stereo partly drawn) [Example 303A, 4-((2R,6S)-2,6-dimethylmorpholino)-5-(4-fluorophenyl)-5-methyl-2-(8-(3,3,4,4,4-pentafluorobutyl)imidazo[1,2-a]pyrazin-6-yl)-5H-pyrrolo[2,3-d]pyrimidin-6(7H)-one]
77	6.82	CCOc1ccc(C2(C)C(=O)Nc3nc(-c4cn5ccnc5c(CCC(F)(F)C(F)(F)F)n4)nc(N)c32)nc1 (stereo not shown) [Example 224A, 4-amino-5-(5-ethoxypyridin-2-yl)-5-methyl-2-(8-(3,3,4,4,4-pentafluorobutyl)imidazo [1,2-a]pyrazin-6-yl)-5H-pyrrolo[2,3-d]pyrimidin-6(7H)-one]
97	8.05	CC1(c2ccc(F)cc2)C(=O)Nc2nc(-c3cn4ccnc4c(Cc4ccc(F)cc4)n3)nc(N)c21 (stereo not shown) [Example 92A, 4-amino-2-(8-(4-fluorobenzyl)imidazo[1,2-a]pyrazin-6-yl)-5-(4-fluorophenyl)-5-methyl-5H-pyrrolo[2,3-d]pyrimidin-6(7H)-one]
117	7.49	Cc1ccc(C2(C)C(=O)Nc3nc(-c4cn5ccnc5c(CCC(F)(F)C(F)(F)F)n4)nc(N)c32)cc1 (stereo not shown) [Example 230B, 4-amino-5-methyl-2-(8-(3,3,4,4,4-pentafluorobutyl)imidazo [1,2-a]pyrazin-6-yl)-5-(p-tolyl)-5H-pyrrolo[2,3-d]pyrimidin-6(7H)-one]
